The values that follow are results of earlier work, collected in US11053254B2, “Crystalline forms of mitomycin C for treatment of cancer” (TRANSGENEX NANOBIOTECH, INC., priority 2018, dated 2021).

The conditions of this data set: acidic solutions with pH<6.

Structures are written as SMILES.

For `CO[C@@]12[C@H](COC(N)=O)C3=C(C(=O)C(C)=C(N)C3=O)N1C[C@@H]1N[C@@H]12` [Mitomycin C, [(4S,6S,7R,8S)-11-amino-7-methoxy-12-methyl-10,13-dioxo-2,5-diazatetracyclo[7.4.0.0^2,7.0^4,6]trideca-1(9),11-dien-8-yl]methyl carbamate], the “degradation in acidic solutions” value was “rapid degradation”.
